The numbers were not newly measured in patent publication US20230158004A1, “ENTERIC-COATED PREPARATION COMPRISING PIRFENIDONE HAVING IMPROVED SAFETY AND STABILITY, AND METHOD FOR PREPARING SAME” (YUNGJIN PHARM. CO., LTD., priority 2020, published 2023), which cites them from elsewhere.

For the data set the following is noted: healthy adults and patients with idiopathic pulmonary fibrosis, total 1,650 people.

On to `Cc1ccc(=O)n(-c2ccccc2)c1` [pirfenidone, 5-methyl-1-phenyl-2-(1H)-pyridone], for which the anorexia is 11.4%, the diarrhea is recorded as 18.8%, the headache is 10.1% and the indigestion is on record as 16.1%. Also, the nausea is 32.4%, the photosensitivity was 9.3% and the rash is 26.2%.
